# US5416070A, “Composition for macrophage activation” (ImmunoTherapeutics, Inc., priority 1990, dated 1995)
# Tests used:
# Balb/c mice = assay: Adjuvant activity on antibody producing cells: plaque forming units per spleen after SRBC immunization; format: in vivo
# Experimental: The efficacy of the compound of the invention in inducing antibody response was evaluated in an immuno-compromised model using aged Balb/c mice and in normal mice using a suboptimal dose of the immunogen.
# […] The spleen was removed on day 4 and assayed for plaque forming units.
# The results (Table 1) indicated a total of 66×10^3 plaque forming units (PFU) per spleen for controls, 198×10^3 PFU per spleen for mice receiving SRBC mixed with 0.1 mg MDP and 442×10^3 PFU for mice receiving SRBC mixed with 0.1 mg. of a compound of the invention IIA. Similarly, young Balb/c mice were immunized intraperitoneally with a suboptimal dose of SRBC (1×10^7 cells) in saline or mixed with 0.01 of 0.1 mg of MDP or IIA.
# [1] = tested on: Human peripheral blood mononuclear cells; assay: Activation of monocytes in vitro measured by in vitro tumor cell cytotoxicity; format: cell-based
# Experimental: Human peripheral blood mononuclear cells were isolated by density gradient centrifugation on 46% Percoll. 1×10^5 of the mononuclear cells were plated onto Falcon microliter plates and allowed to adhere for two hours. The non-adherent cells were removed and fresh media added. The cells were allowed to incubate for 24 hours after which various concentrations of the drug either alone or incorporated in liposomes was added. After 24 hours, the plates were washed and 1×10^4 I^125 labelled target cells were added. Following an additional 72 hours of coincubation, the plates were washed and the residual radioactivity determined. The specific cytotoxicity was calculated from the formula: [formula] The results of cytotoxicity assay of various compounds alone or incorporated in liposomes at various concentrations is given in Table 6.
# [2] = tested on: human peripheral blood monocytes; assay: Activation of monocytes in vitro measured by production of Interleukin-1-beta (ELISA); format: cell-based; conditions: 24 Hours
# Experimental: (§1) Human peripheral blood monocytes were isolated by density gradient centrifugation as noted in Example 13. The cell number was adjusted to 5×10^5 cells per ml in RPM 1640 media containing 5% human AB negative serum. One ml containing 5×10^5 cells were placed in individual wells of 24-well Plastek tissue culture plate. Various drugs in a volume of 0.5 ml were added at time zero. The compounds were also formulated in liposomes as described in Example 10, and added in a volume of 0.5 ml to individual wells of a 24-well Plastek tissue culture plate. The cells were incubated at 37° C. in a 5% CO2 atmosphere. Aliquots (0.1 ml) of the supernatant were removed at 24 hours and frozen at -20° C. These samples were subsequently assayed for TNF as described in Example 33 and Interleukin-1-beta (IL-1β) using a commercially available ELISA kit from Cistron (Pine Brook, N.J.).
# Meth A sarcoma = assay: Antitumor activity in saline in the Meth A sarcoma; format: in vivo, mice
# Experimental: BALB/C female mice, age 7 weeks, were injected subcutaneously with 1×10^6 Meth A tumor cells. Eight days later the animals were treated intravenously with either saline (control) or Compound IIA at a dose of 1, 10, or 100 micrograms (μg). Each group consisted of 4 animals. Tumor measurements were taken every 2 days for 10 days and the mice followed for 60 days until cured or death due to tumor occurred.
# [3] = tested on: human peripheral blood monocytes; assay: Activation of monocytes in vitro measured by production of tumor necrosis factor (ELISA); format: cell-based; conditions: for TNF (pg/ml) at given Concentration of Compound: 24 Hours
# Experimental: Human peripheral blood monocytes were isolated by density gradient centrifugation as noted in Example 13. The cell number was adjusted to 5×10^5 cells per ml in RPM 1640 media containing 5% human AB negative serum. One ml containing 5×10^5 cells were placed in individual wells of a 24-well Plastek tissue culture plate. Various drugs in a volume of 0.5 ml were added at time zero. The cells were incubated at 37° C. in a 5% CO2 atmosphere. Aliquots (0.1 ml) of the supernatant were removed at 24 hours and frozen at -80° C. These samples were subsequently assayed for tumor necrosis factor (TNF) activity using a commercially available ELISA Assay from T-Cell Sciences (Cambridge, Mass.).
# Human peripheral blood monocytes were isolated by density gradient centrifugation as described in Example 13. The cells were plated in 24-well microliter plates as described in Example 33. The compounds Were prepared in liposomes as described in Example 10, and assayed for TNF production, as described in Example 33. The results are set forth in Table 5, and show significant levels of TNF compared to controls.
# as §1
# [4] = tested on: human peripheral blood monocytes; assay: Activation of human peripheral blood monocytes to the tumoricidal state (I125 labeled A-375 tumor cells); format: cell-based; conditions: effector:target 10:1, A-375 tumor cells, 72 hours
# Experimental: Monocyte tumoricidal activity was determined by the method of Fogler and Fidler (W. E. Fogler and I. J. Fidler, J. Immunol., 136; 2311-2317, 1986). Briefly, human peripheral blood monocytes were isolated by gradient centrifugation on 46% Percoll. Monocytes were then cultured in suspension for 18 hours in RPMI 1640 media containing 5% human sera with or without 1.0 μg/ml of Compound IIA at 1×10^6 monocytes/ml. After incubation monocytes were washed, and 1×10^5 or 5×10^4monocytes allowed to attach to wells of a 96-well microplate for 1 hour, then the plate was washed to remove non-adherent cells; to this, 1×10^4 I^125 labeled A-375 tumor cells were added. Monocytes were cultured with tumor cells for 72 hours. At the end of the 72 hour co-culture period, the plates were washed to remove non-adherent-non-viable tumor cells and the remaining adherent viable I^125 labeled tumor cells determined by lysing the cells with sodium dodecyl sulfate and counting radioactivity in a Gamma Counter.
# Activation of human peripheral blood monocytes by liposomes consisting of PC and PG (7:3) containing Compound IIA was determined as described above.
# The effector:target cell ratio was 10:1. The cultures contained a final concentration of 1.0 μg/ml of MDP, Compound IIA or Compound IIA in liposomes.
compound,measurement,setting,value
"CCCCCCCCCCCCCCCC(=O)OCC(COC(=O)C(C)NC(=O)CCC(NC(=O)C(C)NC(=O)C(C)OC1C(NC(C)=O)C(O)OC(CO)C1OC1OC(CO)C(O)C(O)C1NC(C)=O)C(N)=O)OC(=O)CCCCCCCCCCCCCCC [Compound IIA, 4-O-[2-acetamido-2-deoxy-β-D-glucopyranosyl]-2-acetamido-2-deoxy-3-O-[D-2-propanoyl-L-alanyl-D-isoglutaminyl-L-alanyl-1,2-dipalmitoyl-sn-glycerol]-D-glucopyranose]",PFU ×10^3,"Balb/c mice; 3 months old mice, SRBC inoculum 1 × 10^7 i.p., 0.01 mg/mouse",184 ×10^3
same,PFU ×10^3,"Balb/c mice; 3 months old mice, SRBC inoculum 1 × 10^7 i.p., 0.1 mg/mouse",468 ×10^3
same,PFU ×10^3,"Balb/c mice; 18 months old mice, SRBC inoculum 1 × 10^8 i.p., 0.1 mg/mouse, spleen day 4",442 ×10^3
same,plaque forming units (PFU) per spleen,"Balb/c mice; aged Balb/c mice (18 months), SRBC mixed with 0.1 mg",442×10^3 PFU per spleen
same,Cytotoxicity,"[1]; PC/PS liposomes (7:3), 0.1 μg/ml",1.0%
same,Cytotoxicity,"[1]; PC/PS liposomes (7:3), 1.0 μg/ml",8.0%
same,Cytotoxicity,"[1]; PC/PS liposomes (7:3), 10.0 μg/ml",12.0%
same,Cytotoxicity,"[1]; no formulation given (drug alone), 0.1 μg/ml",5.0%
same,Cytotoxicity,"[1]; no formulation given (drug alone), 1.0 μg/ml",4.0%
same,Cytotoxicity,"[1]; no formulation given (drug alone), 10.0 μg/ml",3.0%
same,IL-1-beta (pg/ml) at given Concentration of Compound,"[2]; Table 8, Experiment 1, 0.01 μg/ml",260 pg/mL
same,IL-1-beta (pg/ml) at given Concentration of Compound,"[2]; Table 8, Experiment 1, 0.1 μg/ml",220 pg/mL
same,IL-1-beta (pg/ml) at given Concentration of Compound,"[2]; Table 8, Experiment 1, 1.0 μg/ml",244 pg/mL
same,IL-1-beta (pg/ml) at given Concentration of Compound,"[2]; Table 8, Experiment 1, 10.0 μg/ml",264 pg/mL
same,animals exhibiting complete regression of tumor,Meth A sarcoma; 100 μg i.v.,one of four
same,decrease in tumor growth,"Meth A sarcoma; day 6 after therapy, single i.v. dose of 100 μg",50%
same,TNF Level,"[3]; Experiment 1, free drug in saline 0.1 μg/ml, 24 hours",1760 pg/mL
same,TNF Level,"[3]; Experiment 1, free drug in saline 1.0 μg/ml, 24 hours",1600 pg/mL
same,TNF Level,"[3]; Experiment 1, free drug in saline 10.0 μg/ml, 24 hours",4550 pg/mL
same,TNF Level,"[3]; Experiment 2, free drug in saline 0.1 μg/ml, 24 hours",1450 pg/mL
same,TNF Level,"[3]; Experiment 2, free drug in saline 1.0 μg/ml, 24 hours",1580 pg/mL
same,TNF Level,"[3]; Experiment 2, free drug in saline 10.0 μg/ml, 24 hours",1630 pg/mL
same,TNF Level,"[3]; Experiment 3, free drug in saline 0.1 μg/ml, 24 hours",1450 pg/mL
same,TNF Level,"[3]; Experiment 3, free drug in saline 1.0 μg/ml, 24 hours",1650 pg/mL
same,TNF Level,"[3]; Experiment 3, free drug in saline 10.0 μg/ml, 24 hours",1800 pg/mL
same,TNF Level,"[3]; Table 5, compound incorporated in liposomes, 0.1 μg/ml",1270 pg/mL
same,TNF Level,"[3]; Table 5, compound incorporated in liposomes, 1.0 μg/ml",850 pg/mL
same,TNF Level,"[3]; Table 5, compound incorporated in liposomes, 10.0 μg/ml",1050 pg/mL
same,TNF (pg/ml) at given Concentration of Compound,"[3]; Table 7, Experiment 1, 0.01 μg/ml",650 pg/mL
same,TNF (pg/ml) at given Concentration of Compound,"[3]; Table 7, Experiment 1, 0.1 μg/ml",460 pg/mL
same,TNF (pg/ml) at given Concentration of Compound,"[3]; Table 7, Experiment 1, 1.0 μg/ml",620 pg/mL
same,TNF (pg/ml) at given Concentration of Compound,"[3]; Table 7, Experiment 1, 10.0 μg/ml",500 pg/mL
same,TNF (pg/ml) at given Concentration of Compound,"[3]; Table 9, Experiment 2, 0.1 μg/ml",1400 pg/mL
same,TNF (pg/ml) at given Concentration of Compound,"[3]; Table 9, Experiment 2, 1.0 μg/ml",1700 pg/mL
same,TNF (pg/ml) at given Concentration of Compound,"[3]; Table 9, Experiment 2, 10.0 μg/ml",1070 pg/mL
same,PERCENT CYTOTOXICITY,"[4]; Experiment 1, 1.0 μg/ml",59%
same,PERCENT CYTOTOXICITY,"[4]; Experiment 2, 1.0 μg/ml",37%
